One molecule from BindingDB's records for doi:10.1021/jm020588f (The Danish University of Pharmaceutical Sciences, 2003) can be followed below.

The nature of the assay: Effective concentration of compound was determined for electrophysiological properties on Ionotropic glutamate receptor AMPA 1 (GluR1) using […] Xenopus laevis oocytes.

Molecules are shown by their SMILES.

On to `NC(Cc1o[nH]c(=O)c1Cl)C(=O)O` [(R,S)-2-amino-3-(4-chloro-3-hydroxy-5-isoxazolyl)propionate], for which it took 4.7 µM to reach a half-maximal effect (EC50).
